The text below walks through data of publication PMC5064002, “Sintokamide A Is a Novel Antagonist of Androgen Receptor That Uniquely Binds Activation Function-1 in Its Amino-terminal Domain” (The Journal of Biological Chemistry, 2016).

One experiment concerns the target T1, endogenous AR (Homo sapiens, UniProt P10275, T878A).
T1 construct: endogenous in cells; host or cells: LNCaP
T1 sequence (P10275 1-920 T878A): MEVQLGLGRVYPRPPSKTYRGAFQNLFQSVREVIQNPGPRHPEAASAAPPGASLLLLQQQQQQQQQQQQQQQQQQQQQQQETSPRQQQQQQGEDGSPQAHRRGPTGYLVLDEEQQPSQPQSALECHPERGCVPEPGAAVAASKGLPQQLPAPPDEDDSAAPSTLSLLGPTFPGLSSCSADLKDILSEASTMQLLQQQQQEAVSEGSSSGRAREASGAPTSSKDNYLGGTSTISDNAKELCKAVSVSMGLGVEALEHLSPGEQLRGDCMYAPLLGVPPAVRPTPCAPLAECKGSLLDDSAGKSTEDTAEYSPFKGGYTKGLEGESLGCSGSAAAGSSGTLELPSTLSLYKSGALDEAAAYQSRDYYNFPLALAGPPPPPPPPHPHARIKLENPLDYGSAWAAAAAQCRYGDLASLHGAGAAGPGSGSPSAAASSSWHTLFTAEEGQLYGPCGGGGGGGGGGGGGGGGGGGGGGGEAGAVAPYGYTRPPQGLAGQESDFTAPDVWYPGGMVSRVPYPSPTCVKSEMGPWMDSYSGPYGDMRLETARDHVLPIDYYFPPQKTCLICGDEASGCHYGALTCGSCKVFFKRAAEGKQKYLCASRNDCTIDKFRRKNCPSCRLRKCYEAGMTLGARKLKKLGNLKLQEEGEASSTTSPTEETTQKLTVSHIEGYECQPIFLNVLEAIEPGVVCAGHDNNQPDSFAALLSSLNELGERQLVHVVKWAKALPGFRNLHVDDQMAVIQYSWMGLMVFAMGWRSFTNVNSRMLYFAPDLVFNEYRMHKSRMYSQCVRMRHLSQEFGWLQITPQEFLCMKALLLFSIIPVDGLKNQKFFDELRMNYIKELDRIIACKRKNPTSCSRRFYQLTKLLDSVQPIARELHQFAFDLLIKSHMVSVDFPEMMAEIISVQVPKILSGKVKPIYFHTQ
As to the kind of experiment: Steroid receptor specificity: PSA(6.1kb)-luciferase reporter in LNCaP cells. The experiment is classed as cell-based. Particulars: 10 μM compound, 1 nM R1881, 48 h. In general terms: A reporter such as luciferase makes a cellular process visible.

The next experiment deals with T2, AR (Homo sapiens, UniProt P10275, T878A).
T2 construct: endogenous in cells; host or cells: LNCaP
T2 sequence (P10275 1-920 T878A): T1 sequence (P10275 1-920 T878A)
Description: AR-responsive luciferase reporters (PSA (6.1 kb), PB, ARR3) in LNCaP cells, SINT1 and EPI-002 alone or combined. As to conditions: 1 nM R1881 48 h. The experiment is classed as cell-based. As to the method:
LNCaP cells were transfected with AR-responsive PSA (6.1 kb)-luciferase, PB-luciferase, and ARR3-luciferase reporters. Forty-eight hours later, cells were pretreated for 1 h with SINT1 (0–24 μM), EPI-002 (0–31 μM), or a combination with a constant ratio of 1:1.3 for EPI-002/SINT1 concentration. Cells were then incubated with 1 nM R1881 for 48 h, and a luciferase assay was performed. IC50 values for SINT1 for the three reporters were calculated using GraphPad Prism (version 6.01; GraphPad Software). The combination index of SINT1 and EPI-002 was calculated using CalcuSyn software. Combination indices >1, 1, and <1 indicate antagonism, additive affect, and synergy, respectively.

The subject of a further experiment is LNCaP xenografts. As to the kind of experiment: LNCaP CRPC xenografts in castrated mice. It is filed as in vivo, NOD-SCID mice. The method, then:
Male NOD-SCID mice bearing subcutaneous LNCaP or LNCaP95 tumors were castrated when the tumor volume reached ∼100 mm^3. Seven days after castration, animals were injected intratumorally with 30 mg/kg of body weight SINT1 or a matching volume of vehicle (DMSO) every 3 days for a total of 15 days. Animal behavior and body weight were observed throughout the study period for signs of toxicity. Tumor volumes were calculated by the formula length × width × height × 0.5236. Tumors were excised 3 days after the last injection and prepared for immunohistochemistry or gene expression.
Xenograft sections were stained with hematoxylin and eosin and for Ki67 expression by Wax it Histology Inc. Cells that were positive for Ki67 were counted in sections from three xenografts for each treatment. For PSA and AR staining, dewaxed sections were microwaved for 10 min on full power in prewarmed Antigen Unmasking Solution (pH 6; Vector Laboratories, Inc.). The endogenous peroxidase activity was blocked by incubation in 3% H2O2 for 10 min followed by incubation in Clear Vision Histostaining Blocking Solution (UniCure Lab, Inc.) for 1 h at room temperature. Sections were incubated with AR-N20 (1:500 dilution) and PSA (1:5 dilution; overnight at 4 °C) primary antibodies. Samples were then incubated for 30 min at room temperature with secondary antibodies and mounted in Permount mounting medium (SP15–100, Fisher).

Description for endogenous AR: LNCaP cells were transfected with the reporter plasmid PSA(6.1kb)-luciferase, PRE-luciferase, or GRE-luciferase and expression vector for progesterone receptor (PR)-β or glucocorticoid receptor (GR)-α in serum-free, phenol red-free medium using Lipofectin (Invitrogen).
A, LNCaP cells were transfected with PSA (6.1 kb)-luciferase, PRE-luciferase, or GRE-luciferase reporters and expression vector for PRβ or GRα.

In general, IC50 refers to the concentration that gives 50% inhibition. With `CCC(=O)NC(CC(C)C(Cl)(Cl)Cl)C(=O)N1C(=O)C=C(OC)C1CC(C)C(Cl)Cl` (stereo not drawn) [SINT1, Sintokamide A], the “androgen-induced activity of endogenous AR (PSA (6.1 kb)-luciferase)” value on endogenous AR was “significantly inhibited”. Also, the IC50 at AR (IC50, ARR3-Luc) worked out at 13.2 ± 1.19 µM; at AR (IC50, PB-Luc) it was 11.6 ± 0.78 µM; at AR (IC50, PSA (6.1 kb)-Luc), 10.7 ± 1.55 µM. For the same molecule, the “CRPC tumor overall growth” value with LNCaP xenografts (castrated mice, 30 mg/kg intratumorally every 3 days, five doses, n = 8, p = 0.0495) stood at 112 ± 13%. Further, the “animals achieving a serum PSA drop of ≥50%” value in the experiment with LNCaP xenografts (day 15 vs day of first dose) is “six”. In addition, the “number of Ki67-positive cells in harvested xenografts” value with LNCaP xenografts (immunohistochemistry) was “reduced”. In the experiment with LNCaP xenografts (immunohistochemistry, vs vehicle control), the “levels of PSA in xenografts” value is “marked decreases”. Further, the “levels and cellular localization of AR protein in xenografts” value in the experiment with LNCaP xenografts (immunohistochemistry, vs vehicle-treated) is on record as “similar”.
